Measured values published in US7674771B2, “Antimicrobial peptides and utilization of the same” (Toagosei Co., Ltd, priority 2003, dated 2010).
Read-outs that look alike come from different tables or passages of the source. Ends that are not written are not given here.

How the values were obtained:
[1] = test system: S. aureus; type: cell-based, Staphylococcus aureus
Experimental: (§1) First, a drug (synthesized polypeptide) solution having a concentration of 40 times of the highest test concentration was prepared using sterile distilled water, and liquid-bouillon mediums (more specifically, “Mueller Hinton Broth” manufactured by DIFCO) including cation and having drug concentrations of 100, 50, 25, 12.5, 6.3, 3.1, 1.6 and 0.8 μM were respectively produced. The cation included was prepared as follows: dissolving 3.68 g of CaCl2.2H2O in 100 mL of purified water (10 mg.Ca^2+/mL), and thereafter adding 500 μL thereof into 100 mL of Mueller Hinton Broth; and dissolving 8.36 g of MgCl2.6H2O in 100 mL of purified water (10 mg.Mg^2+/mL), and thereafter adding 250 μL thereof into 100 mL of Mueller Hinton Broth. Thereafter, the produced liquid-bouillon mediums including the drug of each concentration were then fed to the 96-well microplate at […] a time.
(§2) At the same time, test bacteria cultured for 18 hours at 37° C. on an agar plate (“Muller Hinton Agar” manufactured by DIFCO) were gathered by scratching with a loop, and then suspended in a sterilized physiological saline. Bacterial suspension 5 μL prepared at an equivalent of 2×10^7 cells/mL was respectively inoculated (number of bacteria to be tested: approximately 1×10^6 cells/mL) onto the drug solution and fed to each well of the above-described microplate. After inoculation, the microplate was then incubated in an incubator at 37° C., and the presence of bacteria was evaluated based on the turbidity 24 hours later. The minimum drug concentration (polypeptide concentration), in which an increased in turbidity caused by bacteria was not detected at the time of measurement, was defined as MIC (minimum inhibitory concentration) (unit: μM) in the present embodiment. In addition, MIC were determined in the same manner using polymyxin B as a comparison.
Next, the antimicrobial activities (MIC) against gram-positive bacteria (S. aureus) in the presence of serum were tested with the same method as Example 2. […] Thereafter, the produced liquid-bouillon mediums including the drug and the serum of each concentration were then fed to the 96-well microplate at […] a time, and MIC were determined by the method same as Example 2. Sample X in the table is a mixture of sample 1 and sample 16 based on a mass ratio of 1:1. “-” in the table indicate “untested”.

[2] = test system: Aspergillus niger IFO 6341; type: cell-based
Experimental: (§3) Antimicrobial activity against fungi (Aspergillus niger IFO 6341) of the antimicrobial peptides related to the present invention was tested according to a general antimycotic susceptibility test as follows.
More specifically, a slant or plate medium (“potato dextrose agar” medium manufactured by DIFCO was used typically) adhered with spores (conidia) was prepared in advance, and A. niger (IFO 6341; JIS test strain) were gathered from the medium by scratching the medium surface 4 to 5 times from bottom up with a 1 μL disposable loop and suspended in 25 mL of PBS (free of Mg, Ca) solution containing 0.05% of surfactant (Tween® 80). Thereafter, pipetting was performed using a measuring pipette or the like such that clusters of black spores disappeared completely. The spore concentration of the spore suspension prepared by such method was determined using a hemocytometer while the above-described surfactant containing PBS solution was being diluted accordingly, thereby deriving a spore suspension having a spore concentration of approximately 2.5×10^5 spores/mL.
At the same time, the above-described two polypeptides (samples 1, 3) and benzalkonium chloride serving as a comparison for antimycotic activity were dissolved in 10 mM of HEPES buffer (pH7.0) respectively to prepare stock solutions with a 2.0 mg/mL drug concentration. These were sequentially diluted to prepare various kinds of test drugs with drug (each polypeptide or benzalkonium chloride) concentrations of 400, 200, 100, 50, 25, 5 and 0.5 μg/mL.
A spore germination inhibition test and a spore growth inhibition test were performed using the above-prepared drugs and spore suspension as follows.
First, each of the above-described drugs was fed to the 96-well microplate at 40 μL a time for the spore germination inhibition test. The surplus drugs were stored in a refrigerator (4° C.) to be used for the spore growth inhibition test to be perform at a later date.
(§4) Next, a test fungus suspension was prepared by adding, with respect to 10 part by mass of the above-described spore suspension, 2 parts by mass of Alamar Blue fluorescence reagent (product of Wako Pure Chemical Industries, Ltd.) and 8 parts by mass of RPMI1640 medium containing 0.165M of MOPS, which was prepared by dissolving 5.2 g of RPMI1640 (product of Irvine Scientific) and 1.0 g of NaHCO3 in 450 mL of sterile distilled water and thereafter adding 17.12 g of MOPS and stirring, and adjusting the pH value to 7.0 by adding NaOH, and then filling up to 500 mL by adding sterile distilled water. Then, the fungus suspension was fed at 160 μL a time to the wells in which the above-described drugs were added. In addition, empty wells in which no drug was added were also fed at 160 μL a time for spore growth inhibition test. After feeding, it was cultured under a humid environment for 16 hours in an incubator at 30° C.
Twenty-four hours and 48 hours after the beginning of culturing, the colour of the mediums in the wells used for spore germination inhibition test and the wells for spore growth inhibition test were observed. Here, those in which the Alamar Blue included within the medium remain blue (oxidized form) were evaluated as positive of antimicrobial activity positive, and those that are pink (reduced form) were evaluated as negative of antimicrobial activity. Moreover, the smallest drug concentration recognized as oxidized form (blue color) was served as MIC (minimum growth inhibitory concentration) in the spore germination inhibition test and the spore growth inhibition test related to the present example.

[3] = test system: Aspergillus niger IFO 6341; type: cell-based; remark: listed apart in the source
Experimental: as §3
More specifically, a slant or plate medium (“potato dextrose agar” medium manufactured by DIFCO was used typically) adhered with spores (conidia) was prepared in advance, and A. niger (IFO 6341; JIS test strain) were gathered from the medium by scratching the medium surface 4 to 5 times from bottom up with a 1 μL disposable loop and suspended in 25 mL of PBS (free of Mg, Ca) solution containing 0.05% of surfactant (Tween® 80). Thereafter, pipetting was performed using a measuring pipette or the like such that clusters of black spores disappeared completely. The spore concentration of the spore suspension prepared by such method was determined using a hemocytometer while the above-described surfactant containing PBS solution was being diluted accordingly, thereby deriving a spore suspension having a spore concentration of approximately 2.5×10^5 spores/mL. […]
as §4, with “Then, the fungus suspension was fed at 160 μL a time to the wells in which the above-described drugs were added. In addition, empty wells in which no drug was added were also fed at 160 μL a time for spore growth inhibition test. After feeding, it was cultured under a humid environment for 16 hours in an incubator at 30° C.” left out
Sixteen hours after the beginning of culturing, the plate was retrieve from the incubator, and the presence of generation (growth) of mycelia in each well (well that had already been fed exclusively by the above-described test drug) used for spore growth inhibition test was evaluated with a microscope. […]

[4] = test system: Staphylococcus aureus IFO 12732; type: cell-based; conditions: IFO 12732, 24 h
Experimental: (§5) Regarding the antimicrobial peptide (samples 1 to 20) related to the present invention, the antimicrobial activities (minimum inhibitory concentration: MIC) with respect to gram-negative bacteria (Escherichia coli IFO 3972) and gram-positive bacteria (Staphylococcus aureus IFO 12732) were determined by a liquid medium dilution technique using a 96-well microplate.
as §1, §2

[5] = test system: Escherichia coli IFO 3972; assay: MIC by liquid medium dilution technique, 96-well microplate, gram-negative bacteria; type: cell-based; conditions: for Antimicrobial Activities (MIC) E. coli: IFO 3972, 24 h
Experimental: as §5, §1, §2

[6] = test system: methicillin-resistant Staphylococcus aureus (MRSA, No. 164 strain); assay: Treatment effect test on mice infected by MRSA, bacterial count in intestine content; type: in vivo; conditions: oral 100 mg/kg
Experimental: The following test was performed to evaluate the treatment effect on mice infected by bacterial (MRSA) of sample 22 obtained by synthesis.
Mice (ICR, SLC, male, 5 weeks old) were prepared by rearing on drinking water mixed with amphotericin B (AMPH: product of Bristol-Myers Company) and tetracycline, such that their concentrations are 10 μg/mL (AMPH) and 2000 μg/mL (tetracycline) respectively, a week before the start of the test, and the immunity of the mice was weaken by administrating 200 mg/kg amount of cyclophosphamide into the abdominal for 3 days from the fourth day prior to the test.
Bacterial suspension prepared by suspending methicillin-resistant Staphylococcus aureus (MRSA, No. 164 strain) in 10% (w/v) of mucin solution was orally administered to the mice at a bacterial administration quantity of 10^8 cells/mouse, thereby eliciting MRSA infection.
One hour after the bacterial inoculation, antimicrobial agent prepared by suspending the test material (therefore polypeptide of sample 22) in 10% of gum arabic solution was orally administered. The administered quantity of suspension was 100 mg/kg. A total of 5 test groups, with each test group containing 5 test mice, were tested. For comparison, antimicrobial agent prepared by suspending vancomycin in 10% of gum arabic solution was orally administered to the test mice under the same conditions.
After the drug administration, test mice were slaughtered approximately 24 hours later, and the contents in the intestine extracted, and the bacterial count of MRSA examined. More specifically, 1.8 mL of physiological saline was added to and mixed with approximately 0.2 g of intestine contents. A fixed quantity of such mixture was smeared on mannitol agar medium (product of Nissui Pharmaceutical Co., Ltd) including gentamicin (GM) with a concentration of […], and cultured for 3 days at 37° C.

## H-RIRKKLRLMWWML-NH2 [sample 3, RIRKKLRLMWWML-CONH2]
[1]
  Antimicrobial Activities (MIC) against S. aureus, horse serum concentration 10%: 3.1 µM
[2]; IFO 6341, 24 h
  MIC against A. niger, spore germination inhibition test after 24 hours: 100 µg/mL
[2]; IFO 6341, 48 h
  MIC against A. niger, spore germination inhibition test after 48 hours: 100 µg/mL
[3]; IFO 6341, 24 h
  MIC against A. niger, spore growth inhibition test after 24 hours: 100 µg/mL
[4]
  Antimicrobial Activities (MIC) S. aureus: 3.1 µM
[5]
  Antimicrobial Activities (MIC) E. coli: 6.3 µM

## H-RKKKRKVLMWWMLR-NH2 [sample 1, RKKKRKVLMWWMLR-CONH2]
[1]
  Antimicrobial Activities (MIC) against S. aureus, horse serum concentration 10%: 3.1 µM
  Antimicrobial Activities (MIC) against S. aureus, horse serum concentration 20%: 3.1 µM
  Antimicrobial Activities (MIC) against S. aureus, horse serum concentration 50%: 3.1 µM
[2]; IFO 6341, 24 h
  MIC against A. niger, spore germination inhibition test after 24 hours: 50 µg/mL
[2]; IFO 6341, 48 h
  MIC against A. niger, spore germination inhibition test after 48 hours: 50 µg/mL
[3]; IFO 6341, 24 h
  MIC against A. niger, spore growth inhibition test after 24 hours: 100 µg/mL
[4]
  Antimicrobial Activities (MIC) S. aureus: 3.1 µM
[5]
  Antimicrobial Activities (MIC) E. coli: 6.3 µM
[5]; comparison stated in text on Table 2
  antimicrobial activity against E. coli, in words: higher antimicrobial activities

## LKRKLQRVVYWLL-CONH2 (LKRKLQRVVYWLL-NH2) [sample 22]
[6]; mice, approximately 24 hours after administration, group 1
  MRSA bacterial quantity in intestine content, administered group 1: 36 ×10^3 cells/g
[6]; mice, approximately 24 hours after administration, group 2
  MRSA bacterial quantity in intestine content, administered group 2: 35 ×10^3 cells/g
[6]; mice, approximately 24 hours after administration, group 3
  MRSA bacterial quantity in intestine content, administered group 3: 30 ×10^3 cells/g
[6]; mice, approximately 24 hours after administration, group 4
  MRSA bacterial quantity in intestine content, administered group 4: 16 ×10^3 cells/g
[6]; mice, approximately 24 hours after administration, group 5
  MRSA bacterial quantity in intestine content, administered group 5: 26 ×10^3 cells/g
[6]; mice, average of groups 1-5
  MRSA bacterial quantity in intestine content, Average: 29 ×10^3 cells/g
[6]; compared with vancomycin
  treatment effect on MRSA-infected mice, in words: exhibited the same effect as the drug including vancomycin

## benzalkonium chloride [reference compound]
[2]; after 24 hours
  MIC against A. niger, spore germination inhibition test after 24 hours: 25 µg/mL
[2]; after 48 hours
  MIC against A. niger, spore germination inhibition test after 48 hours: 25 µg/mL
[3]; after 24 hours
  MIC against A. niger, spore growth inhibition test after 24 hours: 25 µg/mL
